Laboratory results from PubChem BioAssay AID248 (DTP/NCI, 2004).
Toxic doses and inconclusive results are not listed. Cut-off read from the data, not from the text of the source: active = T/C of 150% or more; inactive = T/C below 125%.

System: L1210 leukemia ip in BDF1 mice, survival T/C
Experiment: NCI In Vivo Anticancer Drug Screen. Data for tumor model L1210 Leukemia (intraperitoneal) in B6D2F1 (BDF1) mice
Conditions: endpoint: mean survival time, higher = longer survival
How it was run: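 Ratio derived from survival: compound-dosed mice over vehicle-dosed mice, all bearing a transplantable tumor.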

[1] = dose: 100.0 mg/kg/injection, schedule: Q01DX009 (ip), vehicle: Klucel (hydroxypropylcellulose) (HPC)
[2] = dose: 100.0 mg/kg/injection, schedule: Q04DX003 (ip), vehicle: Klucel (hydroxypropylcellulose) (HPC)
[3] = dose: 200.0 mg/kg/injection, schedule: Q01DX009 (ip), vehicle: Klucel (hydroxypropylcellulose) (HPC)
[4] = dose: 200.0 mg/kg/injection, schedule: Q04DX003 (ip), vehicle: Klucel (hydroxypropylcellulose) (HPC)
[5] = dose: 400.0 mg/kg/injection, schedule: Q01DX009 (ip), vehicle: Klucel (hydroxypropylcellulose) (HPC)
[6] = dose: 400.0 mg/kg/injection, schedule: Q04DX003 (ip), vehicle: Klucel (hydroxypropylcellulose) (HPC)
[7] = dose: 50.0 mg/kg/injection, schedule: Q01DX001 (ip), vehicle: saline with Tween-80
[8] = dose: 100.0 mg/kg/injection, schedule: Q01DX001 (ip), vehicle: saline with Tween-80
[9] = dose: 200.0 mg/kg/injection, schedule: Q01DX001 (ip), vehicle: saline with Tween-80
[10] = dose: 400.0 mg/kg/injection, schedule: Q01DX001 (ip), vehicle: saline with Tween-80
[11] = dose: 100.0 mg/kg/injection, schedule: Q04DX003 (ip), vehicle: saline with Tween-80
[12] = dose: 200.0 mg/kg/injection, schedule: Q04DX003 (ip), vehicle: saline with Tween-80
[13] = dose: 400.0 mg/kg/injection, schedule: Q04DX003 (ip), vehicle: saline with Tween-80
[14] = dose: 100.0 mg/kg/injection, schedule: Q04DX003 (ip), vehicle: saline
[15] = dose: 200.0 mg/kg/injection, schedule: Q04DX003 (ip), vehicle: saline
[16] = dose: 400.0 mg/kg/injection, schedule: Q04DX003 (ip), vehicle: saline
[17] = dose: 100.0 mg/kg/injection, schedule: Q01DX001 (ip), vehicle: carboxymethylcellulose (CMC)
[18] = dose: 100.0 mg/kg/injection, schedule: Q01DX001 (ip), vehicle: saline
[19] = dose: 200.0 mg/kg/injection, schedule: Q01DX001 (ip), vehicle: carboxymethylcellulose (CMC)
[20] = dose: 200.0 mg/kg/injection, schedule: Q01DX001 (ip), vehicle: saline
[21] = dose: 400.0 mg/kg/injection, schedule: Q01DX001 (ip), vehicle: carboxymethylcellulose (CMC)
[22] = dose: 400.0 mg/kg/injection, schedule: Q01DX001 (ip), vehicle: saline

Measured: T/C

O=[N+]([O-])c1ccc(/C=C/CCOc2ccccc2)cc1
inactive: [1] 98 % of control | [2] 97 % of control | [3] 96 % of control | [4] 105 % of control | [5] 91 % of control | [6] 105 % of control

C=Cc1c2[n-]c(c1C)/C=c1\[n-]/c(c(C)c1C=C)=C\c1[n-]c(c(CCC(=O)O)c1C)/C=c1\[n-]/c(c(C)c1CCC(=O)O)=C\2.[Co]
inactive: dose: 100.0 mg/kg/injection, schedule: Q01DX009 (ip), vehicle: dextrose 88 % of control | dose: 100.0 mg/kg/injection, schedule: Q04DX003 (ip), vehicle: dextrose 94 % of control | dose: 200.0 mg/kg/injection, schedule: Q01DX009 (ip), vehicle: dextrose 94 % of control | dose: 200.0 mg/kg/injection, schedule: Q04DX003 (ip), vehicle: dextrose 104 % of control | dose: 400.0 mg/kg/injection, schedule: Q04DX003 (ip), vehicle: dextrose 94 % of control | dose: 1:1.0 dilution, schedule: Q04DX002 (ip), vehicle: saline 104 % of control | dose: 1:2.0 dilution, schedule: Q04DX002 (ip), vehicle: saline 104 % of control | dose: 1:4.0 dilution, schedule: Q04DX002 (ip), vehicle: saline 86 % of control

CC(C)(C)C(C)(C)O
inactive: dose: 75.0 mg/kg/injection, schedule: Q01DX001 (ip), vehicle: saline with Tween-80 100 % of control | dose: 150.0 mg/kg/injection, schedule: Q01DX001 (ip), vehicle: saline with Tween-80 97 % of control | dose: 300.0 mg/kg/injection, schedule: Q01DX001 (ip), vehicle: saline with Tween-80 92 % of control

S=c1nc[nH]c2n[nH]nc12
inactive: dose: 12.5 mg/kg/injection, schedule: Q01DX001 (ip), vehicle: saline with Tween-80 104 % of control | dose: 25.0 mg/kg/injection, schedule: Q01DX001 (ip), vehicle: saline with Tween-80 103 % of control | [7] 98 % of control | [8] 98 % of control | [9] 101 % of control | [10] 103 % of control

COC(=O)C1=C(C)NC(=O)NC1c1ccccc1 (stereo unspecified)
inactive: [11] 105 % of control | [12] 97 % of control | [13] 100 % of control

O=C(Cl)CNS(=O)(=O)c1ccccc1
inactive: dose: 100.0 mg/kg/injection, schedule: Q01DX001 (ip), vehicle: other 106 % of control | dose: 200.0 mg/kg/injection, schedule: Q01DX001 (ip), vehicle: other 108 % of control | dose: 400.0 mg/kg/injection, schedule: Q01DX001 (ip), vehicle: other 111 % of control

COC(=O)c1cc(C)[n+]([O-])cc1C(=O)OC
inactive: [14] 92 % of control | [15] 97 % of control | [16] 100 % of control

CCCCN=Cc1ccccc1
inactive: dose: 100.0 mg/kg/injection, schedule: Q01DX009 (ip), vehicle: saline with Tween-80 114 % of control | [11] 96 % of control | dose: 200.0 mg/kg/injection, schedule: Q01DX009 (ip), vehicle: saline with Tween-80 90 % of control | [12] 87 % of control | [13] 103 % of control

Nc1nc(=O)n(CCCOc2ccc(NC(=O)Nc3cccc(S(=O)(=O)F)c3)cc2)cc1-c1ccc(Cl)c(Cl)c1
inactive: [7] 98 % of control | [8] 98 % of control | [9] 95 % of control

O=C1NC(=O)c2cccc3cccc1c23
inactive: [8] 98 % of control | [9] 102 % of control | [10] 102 % of control

Cc1cc(=O)[nH]c2c(C)cccc12
inactive: [17] 93 % of control | [18] 95 % of control | [1] 104 % of control | [19] 104 % of control | [20] 98 % of control | [3] 108 % of control | [21] 98 % of control | [22] 87 % of control | [5] 105 % of control

COc1ccccc1OC(=O)c1ccccc1O
inactive: [18] 107 % of control | [14] 90 % of control | [20] 100 % of control | [15] 90 % of control | [22] 94 % of control | [16] 88 % of control

Cc1c([N+](=O)[O-])cc(C(C)(C)C)c(OC(=O)Nc2cccc(Cl)c2)c1[N+](=O)[O-]
inactive: dose: 12.5 mg/kg/injection, schedule: Q01DX009 (ip), vehicle: Klucel (hydroxypropylcellulose) (HPC) 100 % of control | dose: 25.0 mg/kg/injection, schedule: Q01DX009 (ip), vehicle: Klucel (hydroxypropylcellulose) (HPC) 94 % of control | dose: 50.0 mg/kg/injection, schedule: Q01DX009 (ip), vehicle: Klucel (hydroxypropylcellulose) (HPC) 101 % of control

CC1NCCC1CO (stereo unspecified)
inactive: dose: 50.0 mg/kg/injection, schedule: Q01DX009 (ip), vehicle: saline 104 % of control | dose: 100.0 mg/kg/injection, schedule: Q01DX009 (ip), vehicle: saline 97 % of control | [14] 96 % of control | dose: 200.0 mg/kg/injection, schedule: Q01DX009 (ip), vehicle: saline 94 % of control | [15] 104 % of control

O=C(Nc1ccccc1C(F)(F)F)N(CC(O)c1ccccc1)C1CCCCC1 (stereo unspecified)
inactive: [1] 106 % of control | [3] 95 % of control | [5] 100 % of control

O=C1C=C(Nc2ccc(S(=O)(=O)c3ccc(NC4=CC(=O)C(=O)c5ccccc54)cc3)cc2)c2ccccc2C1=O
inactive: dose: 75.0 mg/kg/injection, schedule: Q01DX001 (ip), vehicle: saline 93 % of control | dose: 150.0 mg/kg/injection, schedule: Q01DX001 (ip), vehicle: saline 96 % of control | dose: 300.0 mg/kg/injection, schedule: Q01DX001 (ip), vehicle: saline 96 % of control

NC(C(=O)O)c1cccc(Cl)c1 (stereo unspecified)
inactive: dose: 100.0 mg/kg/injection, schedule: Q01DX001 (ip), vehicle: Klucel (hydroxypropylcellulose) (HPC) 123 % of control | [2] 100 % of control | dose: 200.0 mg/kg/injection, schedule: Q01DX001 (ip), vehicle: Klucel (hydroxypropylcellulose) (HPC) 109 % of control | [4] 91 % of control | dose: 400.0 mg/kg/injection, schedule: Q01DX001 (ip), vehicle: Klucel (hydroxypropylcellulose) (HPC) 105 % of control | [6] 100 % of control

Nc1ccc(CNC(=O)COc2ccc(Cl)cc2C(=O)O)cc1
inactive: [2] 110 % of control | [4] 94 % of control | [6] 100 % of control

CC1COC(Nc2cccc3c2CCCC3)=N1 (stereo unspecified)
inactive: dose: 12.5 mg/kg/injection, schedule: Q01DX009 (ip), vehicle: saline with Tween-80 103 % of control | dose: 25.0 mg/kg/injection, schedule: Q01DX009 (ip), vehicle: saline with Tween-80 92 % of control | dose: 50.0 mg/kg/injection, schedule: Q01DX009 (ip), vehicle: saline with Tween-80 90 % of control

CCCCNC(C)[C@]1(O)Cc2c(O)c3c(c(O)c2[C@@H](OC2CC(N)C(O)C(C)O2)C1)C(=O)c1c(OC)cccc1C3=O (stereo partly specified)
inactive: dose: 1.56 mg/kg/injection, schedule: Q01DX009 (ip), vehicle: water 104 % of control | dose: 3.13 mg/kg/injection, schedule: Q01DX009 (ip), vehicle: water 119 % of control | dose: 6.25 mg/kg/injection, schedule: Q01DX009 (ip), vehicle: water 117 % of control

O=C(Nc1c(Br)cc2c(c1Br)Cc1cc(Br)ccc1-2)C(Cl)Cl
inactive: [17] 98 % of control | [19] 91 % of control | [21] 98 % of control

CCOC(=O)C(C)C(c1ccccc1)c1ccccc1 (stereo unspecified)
inactive: [11] 92 % of control | [12] 93 % of control | [13] 96 % of control

O=C1CC2=CC3C=CC(N1)C2C=C3 (stereo unspecified)
inactive: [11] 109 % of control | [12] 106 % of control | [13] 109 % of control

CCC(CC)NC(CC)CO (stereo unspecified)
inactive: dose: 75.0 mg/kg/injection, schedule: Q01DX001 (ip), vehicle: carboxymethylcellulose (CMC) 101 % of control | dose: 150.0 mg/kg/injection, schedule: Q01DX001 (ip), vehicle: carboxymethylcellulose (CMC) 100 % of control

COCCO
inactive: [18] 105 % of control | [20] 103 % of control | [22] 105 % of control
